Assay results from BigSolDB 2.1.

CC1(C)NC(=O)NC1=O
solubility (mole fraction)
Conditions	283.15 K	288.15 K	293.15 K	298.15 K	303.15 K	308.15 K	313.15 K	318.15 K	323.15 K
in acetonitrile	0.0123	0.0144	0.017	0.0196	0.0227	0.026	0.0294	0.0345	0.039
in ethanol	0.0412	0.0465	0.0526	0.0592	0.0672	0.0757	0.0846	0.0961	0.108
in ethyl acetate	0.0118	0.0133	0.0154	0.0175	0.0191	0.0213	0.0236	0.026	0.0289
in isobutanol	0.0242	0.0284	0.0328	0.038	0.0439	0.0509	0.0577	0.0672	0.0757
in isopropanol	0.0366	0.042	0.0481	0.0554	0.063	0.0714	0.0803	0.0914	0.102
in methanol	0.0647	0.0719	0.0806	0.0896	0.0993	0.111	0.122	0.135	0.15
in n-butanol	0.026	0.0296	0.0338	0.0389	0.0447	0.0509	0.0574	0.0661	0.0737
in n-pentanol	0.0236	0.0267	0.0305	0.0348	0.0398	0.0453	0.0514	0.0583	0.0641
in n-propanol	0.0326	0.0373	0.0424	0.0476	0.0543	0.0616	0.0687	0.0788	0.0881
in n-propyl acetate	0.00923	0.0105	0.0118	0.0138	0.0155	0.0172	0.0193	0.0215	0.0234
in sec-butanol	0.0384	0.0449	0.0505	0.058	0.0655	0.074	0.083	0.093	0.105
in water	0.0163	0.0186	0.0213	0.0242	0.0279	0.0326	0.038	0.0458	0.0532
